In patent US11384120B2, “Peptide capable of binding to biomarker for inflammatory and metabolic diseases, and use thereof” (NIBEC CO., LTD., priority 2019, dated 2022):
Read-outs that look alike come from different tables or passages of the source.

What was measured:
RAW 264.7 cells [1] = assay: cell permeability of rhodamine-labeled peptides by confocal microscopy; conditions: RAW 264.7, rhodamine-labeled peptide 50 μM, 20 minutes, FIG. 3
Method: (§1) RAW 264.7 cells were seeded at a density of 2×10^4/well on a 6-well plate. After 24 hours, replacement was conducted with DMEM medium containing 0.5% FBS. The cells were treated with 50 μM of each of fluorescence (rhodamine)-labeled peptides of SEQ ID NOS: 1, 5 and 6. After 20 minutes, the cells were fixed and observed with a confocal microscope.

IL-6 = IL-6 expression by ELISA in palmitic acid-treated HepG2 cells; format: cell-based; conditions: HepG2, peptide 200 μM 2 hours, then palmitic acid 200 μM 24 hours, medium, FIG. 4
Method: HepG2 cells were plated at a density of 70% on a 6-well plate. After 16 hours, the cells were starved using DMEM medium containing 0.5% FBS for 2 hours. The cells were treated with a medium containing each of the peptides of SEQ ID NOS: 1 to 6 at a concentration of 200 μM for 2 hours, and were further treated with palmitic acid at a concentration of 200 μM to induce an inflammatory response for 24 hours. Each medium was collected, and the level of expression of IL-6, an inflammatory cytokine, was detected with an ELISA kit (R&D, Minneapolis, Minn., USA).

RAW 264.7 cells [2] = system: RAW 264.7 cells
Method: as §1

Sequence | cell permeability (fluorescence in the cells) (RAW 264.7 cells [1]) | expression level of IL-6 (IL-6) | cell permeability (fluorescence in the cells) (RAW 264.7 cells [2])
GKCSTRGRKCCRRKK [SEQ ID NO: 5] | excellent cell permeability | – | –
AESPLTNRGWNPGKCSTRGRKCCRRKK [SEQ ID NO: 6] | – | lowest IL-6 expression level | excellent cell permeability
